Measurements as given in PubChem BioAssay (NCI).
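The compound was tested at five concentrations on cells cultured in 96-well plates, with a 48-hour exposure period. TGI denotes the concentration required for complete inhibition of growth.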

Assays:
Assay in all cases: growth of human tumour cells (NCI), 48 h
[1] = system: SF-539 CNS
[2] = system: MDA-MB-231 breast
[3] = system: LOX IMVI melanoma
[4] = system: TK-10 renal
[5] = system: SW-620 colon
[6] = system: OVCAR-3 ovarian
[7] = system: HL-60(TB) leukemia
[8] = system: NCI-H460 lung
[9] = system: SR leukemia
[10] = system: OVCAR-4 ovarian
[11] = system: NCI-H23 lung
[12] = system: K-562 leukemia
[13] = system: SNB-19 CNS
[14] = system: UO-31 renal
[15] = system: CCRF-CEM leukemia
[16] = system: NCI/ADR-RES ovarian
[17] = system: MOLT-4 leukemia
[18] = system: CAKI-1 renal
[19] = system: HOP-92 NSCLC
[20] = system: 786-0 renal
[21] = system: UACC-62 melanoma
[22] = system: HT29 colon
[23] = system: DU-145 prostate
[24] = system: HCC-2998 colon
[25] = system: MALME-3M melanoma
[26] = system: A549 NSCLC
[27] = system: SNB-75 CNS
[28] = system: HS 578T breast
[29] = system: PC-3 prostate
[30] = system: OVCAR-8 ovarian
[31] = system: SK-OV-3 ovarian
[32] = system: NCI-H226 lung
[33] = system: SF-295 CNS
[34] = system: RXF 393 renal
[35] = system: COLO 205 colon
[36] = system: EKVX NSCLC
[37] = system: RPMI-8226 leukemia
[38] = system: U251 CNS
[39] = system: SK-MEL-2 melanoma
[40] = system: OVCAR-5 ovarian
[41] = system: HCT-15 colon
[42] = system: HCT-116 colon
[43] = system: A498 renal
[44] = system: M14 melanoma
[45] = system: ACHN renal
[46] = system: MDA-MB-435
[47] = system: HOP-62 NSCLC
[48] = system: MCF7 breast
[49] = system: KM12 colon
[50] = system: SK-MEL-5 melanoma
[51] = system: SF-268 CNS

Measured: TGI

Cc1ccc(S(=O)(=O)NC(=O)Nc2ccc(C(=O)O)c(O)c2)cc1
> 100 µM: all assays above
